Measured values reported in article PMC4503722, “Novel Phenotypic Outcomes Identified for a Public Collection of Approved Drugs from a Publicly Accessible Panel of Assays” (PLoS ONE, 2015).

system: NCI-H716 cells; test: cells; assay type: cell-based, Human; conditions: assay number 12

| Compound | hNCI-H716 GLP1 Secretion IC50/EC50 [µM] |
| --- | --- |
| CC(C)(C)CC(C)(C)c1ccc(O)cc1 [NCGC00164127-07] | 25.8625 |
| Cc1c(NC(C)C)c(=O)n(-c2ccccc2)n1C [NCGC00016735-06] | > 40 |
| CC(C)(O)c1ccccc1CC[C@@H](SCC1(CC(=O)[O-])CC1)c1cccc(/C=C/c2ccc3ccc(Cl)cc3n2)c1.[Na+] [NCGC00164568-04] | 20.7101 |
| COc1cc2nc(N3CCN(C(=O)C4COc5ccccc5O4)CC3)nc(N)c2cc1OC.CS(=O)(=O)O (stereo not shown) [NCGC00018158-09] | > 40 |
| CC(C)(Oc1ccc(C2CC2(Cl)Cl)cc1)C(=O)O (stereo not shown) [NCGC00015202-08] | > 40 |
| CCN(CC)CCOC(=O)C(Cc1cccc2ccccc12)CC1CCCO1 (stereo not shown) [NCGC00178213-05] | > 40 |
| CCCOC(C(=O)OC1CCN(C)CC1)(c1ccccc1)c1ccccc1.Cl [NCGC00181103-02] | > 40 |
| COc1ccc(OC(=O)N(CC(=O)O)Cc2ccc(OCCc3nc(-c4ccccc4)oc3C)cc2)cc1 [NCGC00262954-01] | 36.168 |
| Cc1cc(N)c2cc(NC(=O)Nc3ccc4nc(C)cc(N)c4c3)ccc2n1 [NCGC00013130-04] | 34.2472 |
| CCCCCCCC/C=C\CCCCCCCCN [NCGC00164329-03] | 14.7555 |
| Cc1c(C)c2c(c(C)c1OC(=O)CCC(=O)OCCO)CC[C@@](C)(CCC[C@H](C)CCC[C@H](C)CCCC(C)C)O2 [NCGC00183103-01] | > 40 |
| [O-][S+](c1cc(Cl)cc(Cl)c1O)c1cc(Cl)cc(Cl)c1O [NCGC00160554-02] | 19.7164 |
| CC(=O)OC(C)C[N+](C)(C)C.[Cl-] (stereo not shown) [NCGC00015045-09] | > 40 |
| Cl.Nc1cc(C(F)(F)F)ccc1S [NCGC00262926-01] | 15.3214 |
| c1ccc2ccccc2c1 [NCGC00090793-05] | 20.7685 |
| CC1=C(C(=O)OC(C)C)C(c2cccc([N+](=O)[O-])c2)C(C(=O)OC2CN(C(c3ccccc3)c3ccccc3)C2)=C(N)N1 (stereo not shown) [NCGC00167436-02] | 12.7519 |
| CN(C)[C@@H]1C(=O)C(C(=O)NCN2CCCC2)=C(O)[C@@]2(O)C(=O)C3=C(O)c4c(O)cccc4[C@@](C)(O)[C@H]3C[C@@H]12 [NCGC00263906-02] | > 40 |
| CCCCC(CC)CN1CN(CC(CC)CCCC)CC(C)(N)C1 (stereo not shown) [NCGC00094819-07] | 36.4422 |
| Cc1c(C)n(CCN(C)C)c2ccc(C(=O)OCCN(C)C)cc12 [NCGC00164483-03] | > 40 |
| Cc1nnc2n1-c1sc(CCc3ccc(CC(C)C)cc3)cc1C(c1ccccc1Cl)=NC2C (stereo not shown) [NCGC00183008-01] | 24.6779 |
| CN[C@@H]1[C@H](O)[C@H](NC)[C@H]2O[C@@]3(O)C(=O)C[C@@H](C)O[C@H]3O[C@@H]2[C@H]1O.Cl.Cl [NCGC00017354-07] | > 40 |
| O=C(Nc1ccc(S(=O)(=O)N2CCOCC2)cc1)c1cc(Cl)ccc1NS(=O)(=O)c1ccc(Cl)s1 [NCGC00249417-02] | > 40 |
| Clc1ccc(CSC(Cn2ccnc2)c2ccc(Cl)cc2Cl)cc1.O=[N+]([O-])O (stereo not shown) [NCGC00018250-06] | 20.9915 |
| C[C@@H](NCCCc1cccc(C(F)(F)F)c1)c1cccc2ccccc12.Cl [NCGC00181002-04] | 17.1869 |
| CC(O)C(=O)O.CCCCCCCCCCCCCCNCCO [NCGC00164503-02] | 13.5546 |
| Cc1cc(C(C)(C)CC(C)(C)C)ccc1OCCOCC[N+](C)(C)Cc1ccccc1 [NCGC00016789-06] | 12.042 |

same assay, conditions: concentration response

| Compound | IC50/EC50, hNCI-H716 GLP1 Secretion (assay number 12) [µM] |
| --- | --- |
| O=c1[nH]sc2cc(Cl)ccc12 [NCGC00262908-01] | > 40 |
| CCOC(=O)[C@@H](N)CS.Cl [NCGC00166061-02] | > 40 |
| CN(C(=O)CN(CCO)CC(=O)N(C)C(C)(C)Cc1ccccc1)C(C)(C)Cc1ccccc1 [NCGC00016382-07] | 25.0515 |
| C/C=C(/C(=C/C)c1ccc(O)cc1)c1ccc(O)cc1 [NCGC00018153-10] | > 40 |
| CCCCCCCCN[C@@H](C)[C@H](O)c1ccc(SC(C)C)cc1 [NCGC00018301-05] | 13.0298 |
| [Cl][Pt+2][Cl].[NH2-].[NH2-] [NCGC00263537-01] | > 40 |

system: ECFC/ADSC co-culture cell nuclei number; test: not given; conditions: not given

| Compound | IC50/EC50, VEGF_ADSC\ECFC Angio Hoechst NucArea (assay number 3) [µM] | VEGF_ADSC\ECFC Angio Hoechst NucArea IC50/EC50 [µM] |
| --- | --- | --- |
| O=c1[nH]sc2cc(Cl)ccc12 [NCGC00262908-01] | 9.427 | – |
| CC(C)(C)CC(C)(C)c1ccc(O)cc1 [NCGC00164127-07] | – | 9.1112 |
| COc1cc2nc(N3CCN(C(=O)C4COc5ccccc5O4)CC3)nc(N)c2cc1OC.CS(=O)(=O)O (stereo not shown) [NCGC00018158-09] | – | > 10 |
| CCCCCCCC/C=C\CCCCCCCCN [NCGC00164329-03] | – | 9.128 |
| [O-][S+](c1cc(Cl)cc(Cl)c1O)c1cc(Cl)cc(Cl)c1O [NCGC00160554-02] | – | > 10 |
| Cl.Nc1cc(C(F)(F)F)ccc1S [NCGC00262926-01] | – | > 10 |
| CC1=C(C(=O)OC(C)C)C(c2cccc([N+](=O)[O-])c2)C(C(=O)OC2CN(C(c3ccccc3)c3ccccc3)C2)=C(N)N1 (stereo not shown) [NCGC00167436-02] | – | 7.394 |
| O=C(Nc1ccc(S(=O)(=O)N2CCOCC2)cc1)c1cc(Cl)ccc1NS(=O)(=O)c1ccc(Cl)s1 [NCGC00249417-02] | – | > 10 |
| Clc1ccc(CSC(Cn2ccnc2)c2ccc(Cl)cc2Cl)cc1.O=[N+]([O-])O (stereo not shown) [NCGC00018250-06] | – | 8.757 |
| C[C@@H](NCCCc1cccc(C(F)(F)F)c1)c1cccc2ccccc12.Cl [NCGC00181002-04] | – | > 10 |
| CC(O)C(=O)O.CCCCCCCCCCCCCCNCCO [NCGC00164503-02] | – | 9.1871 |
| Cc1cc(C(C)(C)CC(C)(C)C)ccc1OCCOCC[N+](C)(C)Cc1ccccc1 [NCGC00016789-06] | – | 8.703 |

system: endothelial tube formation in co-cultures of ECFCs and ADSCs treated with VEGF; test: cells; assay type: cell-based, human; conditions: not given

| Compound | IC50/EC50, VEGF_ADSC\ECFC Angio CD31 TubeArea (assay number 2) [µM] | VEGF_ADSC\ECFC Angio CD31 TubeArea IC50/EC50 [µM] |
| --- | --- | --- |
| O=c1[nH]sc2cc(Cl)ccc12 [NCGC00262908-01] | > 10 | – |
| CC(C)(C)CC(C)(C)c1ccc(O)cc1 [NCGC00164127-07] | – | > 10 |
| COc1cc2nc(N3CCN(C(=O)C4COc5ccccc5O4)CC3)nc(N)c2cc1OC.CS(=O)(=O)O (stereo not shown) [NCGC00018158-09] | – | > 10 |
| CCCCCCCC/C=C\CCCCCCCCN [NCGC00164329-03] | – | > 10 |
| [O-][S+](c1cc(Cl)cc(Cl)c1O)c1cc(Cl)cc(Cl)c1O [NCGC00160554-02] | – | > 10 |
| Cl.Nc1cc(C(F)(F)F)ccc1S [NCGC00262926-01] | – | > 10 |
| CC1=C(C(=O)OC(C)C)C(c2cccc([N+](=O)[O-])c2)C(C(=O)OC2CN(C(c3ccccc3)c3ccccc3)C2)=C(N)N1 (stereo not shown) [NCGC00167436-02] | – | 3.5833 |
| O=C(Nc1ccc(S(=O)(=O)N2CCOCC2)cc1)c1cc(Cl)ccc1NS(=O)(=O)c1ccc(Cl)s1 [NCGC00249417-02] | – | > 10 |
| Clc1ccc(CSC(Cn2ccnc2)c2ccc(Cl)cc2Cl)cc1.O=[N+]([O-])O (stereo not shown) [NCGC00018250-06] | – | 2.1282 |
| C[C@@H](NCCCc1cccc(C(F)(F)F)c1)c1cccc2ccccc12.Cl [NCGC00181002-04] | – | > 10 |
| CC(O)C(=O)O.CCCCCCCCCCCCCCNCCO [NCGC00164503-02] | – | > 10 |
| Cc1cc(C(C)(C)CC(C)(C)C)ccc1OCCOCC[N+](C)(C)Cc1ccccc1 [NCGC00016789-06] | – | > 10 |

system: STC-1 cell line; test: not given; assay type: cell-based, mouse; conditions: assay number 13

| Compound | mSTC-1 GLP1 Secretion IC50/EC50 [µM] |
| --- | --- |
| CC(C)(C)CC(C)(C)c1ccc(O)cc1 [NCGC00164127-07] | 8.3699 |
| Cc1c(NC(C)C)c(=O)n(-c2ccccc2)n1C [NCGC00016735-06] | > 40 |
| CC(C)(O)c1ccccc1CC[C@@H](SCC1(CC(=O)[O-])CC1)c1cccc(/C=C/c2ccc3ccc(Cl)cc3n2)c1.[Na+] [NCGC00164568-04] | > 40 |
| COc1cc2nc(N3CCN(C(=O)C4COc5ccccc5O4)CC3)nc(N)c2cc1OC.CS(=O)(=O)O (stereo not shown) [NCGC00018158-09] | 10.6547 |
| CC(C)(Oc1ccc(C2CC2(Cl)Cl)cc1)C(=O)O (stereo not shown) [NCGC00015202-08] | > 40 |
| CCN(CC)CCOC(=O)C(Cc1cccc2ccccc12)CC1CCCO1 (stereo not shown) [NCGC00178213-05] | > 40 |
| CCCOC(C(=O)OC1CCN(C)CC1)(c1ccccc1)c1ccccc1.Cl [NCGC00181103-02] | 23.8177 |
| COc1ccc(OC(=O)N(CC(=O)O)Cc2ccc(OCCc3nc(-c4ccccc4)oc3C)cc2)cc1 [NCGC00262954-01] | 1.5351 |
| Cc1cc(N)c2cc(NC(=O)Nc3ccc4nc(C)cc(N)c4c3)ccc2n1 [NCGC00013130-04] | > 40 |
| CCCCCCCC/C=C\CCCCCCCCN [NCGC00164329-03] | > 40 |
| Cc1c(C)c2c(c(C)c1OC(=O)CCC(=O)OCCO)CC[C@@](C)(CCC[C@H](C)CCC[C@H](C)CCCC(C)C)O2 [NCGC00183103-01] | > 40 |
| [O-][S+](c1cc(Cl)cc(Cl)c1O)c1cc(Cl)cc(Cl)c1O [NCGC00160554-02] | > 40 |
| CC(=O)OC(C)C[N+](C)(C)C.[Cl-] (stereo not shown) [NCGC00015045-09] | > 40 |
| Cl.Nc1cc(C(F)(F)F)ccc1S [NCGC00262926-01] | 1.1561 |
| c1ccc2ccccc2c1 [NCGC00090793-05] | > 40 |
| CC1=C(C(=O)OC(C)C)C(c2cccc([N+](=O)[O-])c2)C(C(=O)OC2CN(C(c3ccccc3)c3ccccc3)C2)=C(N)N1 (stereo not shown) [NCGC00167436-02] | 1.234 |
| CN(C)[C@@H]1C(=O)C(C(=O)NCN2CCCC2)=C(O)[C@@]2(O)C(=O)C3=C(O)c4c(O)cccc4[C@@](C)(O)[C@H]3C[C@@H]12 [NCGC00263906-02] | > 40 |
| CCCCC(CC)CN1CN(CC(CC)CCCC)CC(C)(N)C1 (stereo not shown) [NCGC00094819-07] | 26.5729 |
| Cc1c(C)n(CCN(C)C)c2ccc(C(=O)OCCN(C)C)cc12 [NCGC00164483-03] | 1.1962 |
| Cc1nnc2n1-c1sc(CCc3ccc(CC(C)C)cc3)cc1C(c1ccccc1Cl)=NC2C (stereo not shown) [NCGC00183008-01] | > 40 |
| CN[C@@H]1[C@H](O)[C@H](NC)[C@H]2O[C@@]3(O)C(=O)C[C@@H](C)O[C@H]3O[C@@H]2[C@H]1O.Cl.Cl [NCGC00017354-07] | > 40 |
| O=C(Nc1ccc(S(=O)(=O)N2CCOCC2)cc1)c1cc(Cl)ccc1NS(=O)(=O)c1ccc(Cl)s1 [NCGC00249417-02] | > 40 |
| Clc1ccc(CSC(Cn2ccnc2)c2ccc(Cl)cc2Cl)cc1.O=[N+]([O-])O (stereo not shown) [NCGC00018250-06] | > 40 |
| C[C@@H](NCCCc1cccc(C(F)(F)F)c1)c1cccc2ccccc12.Cl [NCGC00181002-04] | > 40 |
| CC(O)C(=O)O.CCCCCCCCCCCCCCNCCO [NCGC00164503-02] | > 20 |
| Cc1cc(C(C)(C)CC(C)(C)C)ccc1OCCOCC[N+](C)(C)Cc1ccccc1 [NCGC00016789-06] | > 40 |

same assay, conditions: concentration response

| Compound | IC50/EC50, mSTC-1 GLP1 Secretion (assay number 13) [µM] |
| --- | --- |
| O=c1[nH]sc2cc(Cl)ccc12 [NCGC00262908-01] | > 40 |
| CCOC(=O)[C@@H](N)CS.Cl [NCGC00166061-02] | 14.3442 |
| CN(C(=O)CN(CCO)CC(=O)N(C)C(C)(C)Cc1ccccc1)C(C)(C)Cc1ccccc1 [NCGC00016382-07] | > 40 |
| C/C=C(/C(=C/C)c1ccc(O)cc1)c1ccc(O)cc1 [NCGC00018153-10] | > 40 |
| CCCCCCCCN[C@@H](C)[C@H](O)c1ccc(SC(C)C)cc1 [NCGC00018301-05] | > 40 |
| [Cl][Pt+2][Cl].[NH2-].[NH2-] [NCGC00263537-01] | > 40 |
